pIC50: −log10 of the molar value. Some results are limits rather than exact numbers.

One data set concerns the target T1, human CXCR2 (Homo sapiens, UniProt P25025).
T1 construct: expressed in transfected cells; host or cells: HEK293
T1 sequence (P25025 1-360): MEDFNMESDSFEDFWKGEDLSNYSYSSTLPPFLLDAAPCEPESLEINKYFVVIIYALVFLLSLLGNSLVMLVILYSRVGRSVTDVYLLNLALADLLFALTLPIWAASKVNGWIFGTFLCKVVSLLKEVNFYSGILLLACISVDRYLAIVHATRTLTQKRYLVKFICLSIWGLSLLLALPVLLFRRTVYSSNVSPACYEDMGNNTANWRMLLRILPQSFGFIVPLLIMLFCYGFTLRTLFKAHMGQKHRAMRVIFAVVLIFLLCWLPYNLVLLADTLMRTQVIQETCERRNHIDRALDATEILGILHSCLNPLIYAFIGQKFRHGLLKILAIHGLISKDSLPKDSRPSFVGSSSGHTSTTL
Description: human CXCR2 calcium flux activity (FLIPR, HEK293 cells stably expressing human CXCR2, IL-8 stimulation). Format: cell-based. To be noted: HEK293 cells stably expressing human CXCR2, EC80 human IL-8; read-out: CXCR2 inhibitory activity, IC50. As for the experimental part: The activity of the compounds was evaluated using HEK293 cells stably expressing human CXCR2 via the FLIPR platform. A 384-well black cell culture plate (Greiner, 781946) was used, with a seeding density of 20,000 cells/well, and incubated overnight at 37°C in a 5% CO2 incubator. The culture medium in the cell plate wells was removed, and 20 µL of Fluo-4 Direct™ Calcium Assay Buffer (Invitrogen, F10471, Component C), 20 µL of 2× Fluo-4 Direct™ Calcium Assay Reagent (Invitrogen, F10471, Component A) working solution, and 10 µL of 6× test compound working solution were sequentially added to each well. The cell plate was incubated in a 37 °C, 5% CO2 incubator for 50 min, followed by a 10 min incubation at room temperature. Additionally, a 6×EC80 human IL-8 (Sigma, SRP3311) working solution was prepared. After the incubation was completed, 10 µL/well of the 6×EC80 human IL-8 working solution was transferred to the corresponding cell wells using a FLIPR instrument, and the fluorescence signal changes at an excitation wavelength of 494 nm and an emission wavelength of 516 nm were recorded over 130 s. The difference between the maximum fluorescence signal (RFUMax) and the minimum fluorescence signal (RFUMin) was used as the output signal. The compound inhibition rate and the log value of the compound concentration were calculated, and a four-parameter fitting analysis was performed using GraphPad Prism 8 software to obtain the IC50 value of the test compound. Table 1. Inhibitory activity data of compounds against CCR6 and CXCR2

A short description of data set [1]: in vitro liver microsome metabolic stability, human. The class given is in vitro ADME. The conditions noted are these: Human liver microsomes, 37°C. The procedure, abridged: (§1)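 Test compound at 1 µM final (100 µM working solution diluted 1:100) incubated at 37°C with liver microsomes in pH 7.4 phosphate buffer with NADP/G6P/G6PDH/MgCl2 regenerating system; sampled 0–30 min, LC-MS/MS vs internal standard. T1/2 = 0.693/k from remaining-fraction decay.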
For orientation: Liver microsomes are vesicles of endoplasmic reticulum, rich in cytochrome P450 enzymes.

Data set [2] in a line: in vitro liver microsome metabolic stability, rat. The class given is in vitro ADME. To be noted: Rat liver microsomes, 37°C. The method in brief:
as §1

With `CN(C)C(=O)c1nccc(Nc2c(N[C@@H](C#CC3CCC3)[C@]3(C)CC(F)(F)CO3)c(=O)c2=O)c1O` (single isomer, unassigned) [110A], the pIC50 on human CXCR2 was 6.53. Moreover, the “Liver microsome T1-2 (min) Human” value in data set [1] stood at 641.85 min. Also, the “Liver microsome T1-2 (min) Rat” value in data set [2] was found to be 292.82 min.
With `CN(C)C(=O)c1nccc(Nc2c(N[C@@H](c3nc(Cl)ccc3F)[C@@]3(C)CC(F)(F)CO3)c(=O)c2=O)c1O` [068B, 4-((2-(((S)-(6-chloro-3-fluoropyridin-2-yl)((R)-4,4-difluoro-2-methyltetrahydrofuran-2-yl)methyl)amino)-3,4-dioxocyclobut-1-en-1-yl)amino)-3-hydroxy-N,N-dimethylpicolinamide], at human CXCR2, the pIC50 was 5.12. Further, the “Liver microsome T1-2 (min) Human” value in data set [1] is 995.19 min. Also, the “Liver microsome T1-2 (min) Rat” value in data set [2] was found to be 570.62 min.
In the same order, the values of `Cc1cc(F)cnc1[C@H](Nc1c(Nc2ccnc(C(=O)N(C)C)c2O)c(=O)c1=O)[C@]1(C)CC(F)(F)CO1` [093A, 4-((2-(((S)-((S)-4,4-difluoro-2-methyltetrahydrofuran-2-yl)(5-fluoro-3-methylpyridin-2-yl)methyl)amino)-3,4-dioxocyclobut-1-en-1-yl)amino)-3-hydroxy-N,N-dimethylpicolinamide] are under 4.00, 359.51 min and 110.15 min.
In the case of `CN(C)C(=O)c1nccc(Nc2c(N[C@@H](c3cccc(Cl)n3)C3(C)CCCC3)c(=O)c2=O)c1O` [compound 003, (R)-4-((2-(((6-chloropyridin-2-yl)(1-methylcyclopentyl)methyl)amino)-3,4-dioxocyclobut-1-en-1-yl)amino)-3-hydroxy-N,N-dimethylpicolinamide], the pIC50 on human CXCR2 is 5.66. In data set [1], the “Liver microsome T1-2 (min) Human” value is 511.95 min. For the same compound, the “Liver microsome T1-2 (min) Rat” value in data set [2] stood at 93.67 min.
Regarding `CN(C)C(=O)c1nccc(Nc2c(N[C@@H](c3ccc(F)cn3)C3(C)CCCC3)c(=O)c2=O)c1O` [compound 005, (R)-4-((2-(((5-fluoropyridin-2-yl)(1-methylcyclopentyl)methyl)amino)-3,4-dioxocyclobut-1-en-1-yl)amino)-3-hydroxy-N,N-dimethylpicolinamide], the pIC50 on human CXCR2 is 5.90. The “Liver microsome T1-2 (min) Human” value in data set [1] came out at 431.17 min. In data set [2], the “Liver microsome T1-2 (min) Rat” value amounted to 101.29 min.
The corresponding values for `CN(C)C(=O)c1nccc(Nc2c(N[C@@H](c3ncc(F)cc3F)C3(C)CCCC3)c(=O)c2=O)c1O` [compound 009, (R)-4-((2-(((3,5-difluoropyridin-2-yl)(1-methylcyclopentyl)methyl)amino)-3,4-dioxocyclobut-1-en-1-yl)amino)-3-hydroxy-N,N-dimethylpicolinamide] are 5.61, 225.37 min and 62.30 min.
In the same order, the values of `Cc1cccnc1[C@H](Nc1c(Nc2ccc(Cl)c(C(=O)N(C)C)c2O)c(=O)c1=O)C1(C)CCCC1` [compound 063, (R)-6-chloro-2-hydroxy-N,N-dimethyl-3-((2-(((1-methylcyclopentyl)(3-methylpyridin-2-yl)methyl)amino)-3,4-dioxocyclobut-1-en-1-yl)amino)benzamide] are 4.81, 296.47 min and 20.71 min.
Consider `CN(C)C(=O)c1nccc(Nc2c(N[C@@H](c3cccc(CF)n3)C3(C)CCCC3)c(=O)c2=O)c1O` [compound 108, (R)-4-((2-(((6-(fluoromethyl)pyridin-2-yl)(1-methylcyclopentyl)methyl)amino)-3,4-dioxocyclobut-1-en-1-yl)amino)-3-hydroxy-N,N-dimethylpicolinamide], for which the pIC50 at human CXCR2 was 6.13. Besides, in data set [1], the “Liver microsome T1-2 (min) Human” value worked out at 458.54 min. The “Liver microsome T1-2 (min) Rat” value in data set [2] came out at 124.28 min.
In the same order, the values of `CC#C[C@H](Nc1c(Nc2ccnc(C(=O)N(C)C)c2O)c(=O)c1=O)C1(C)CCCC1` [compound 113, (R)-3-hydroxy-N, N-dimethyl-4-((2-((1-(1-methylcyclopentyl)but-2-yn-1-yl)amino)-3,4-dioxocyclobut-1-en-1-yl)amino)picolinamide] are 5.83, 577.09 min and 124.51 min.
The corresponding values for `CC#C[C@H](Nc1c(Nc2ccc(Cl)c(C(=O)N(C)C)c2O)c(=O)c1=O)C1(C)CCCC1` [compound 114, (R)-6-chloro-2-hydroxy-N, N-dimethyl-3-((2-((1-(1-methylcyclopentyl)but-2-yn-1-yl)amino)-3,4-dioxocyclobut-1-en-1-yl)amino)benzamide] are 5.84, 392.83 min and 120.25 min.
The corresponding values for `CN(C)C(=O)c1nccc(Nc2c(N[C@@H](C#CC3CC3)C3(C)CCCC3)c(=O)c2=O)c1O` [compound 115, (R)-4-((2-((3-cyclopropyl-1-(1-methylcyclopentyl)prop-2-yn-1-yl)amino)-3,4-dioxocyclobut-1-en-1-yl)amino)-3-hydroxy-N,N-dimethylpicolinamide] are 6.28, 247.27 min and 114.18 min.

By pIC50 is commonly meant the negative decadic logarithm of the IC50, by convention in mol/L.

These data come from patent EP4703354A1, “COMPOUND AS CCR6 ANTAGONIST, AND PHARMACEUTICAL COMPOSITION AND USE THEREOF” (Wuhan Createrna Science and Technology Co.,Ltd., priority 2023, dated 2024).
